# Results: PubChem BioAssay (NCI)
#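 96-well plates; 48 h exposure; 5 concentrations. Endpoints by linear interpolation between flanking doses. Not reached: highest tested concentration assigned. At the TGI there is no net growth.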
# Columns and labels:
# Experiment in all cases: inhibition of tumour cell growth, NCI panel, 48 h
# [1] = system: DMS 273 small cell lung
# [2] = system: M14 melanoma
# [3] = system: NCI-H522 lung
# [4] = system: A549 NSCLC
# [5] = system: UACC-257 melanoma
# [6] = system: SK-MEL-28 melanoma
# [7] = system: UACC-62 melanoma
# [8] = system: MALME-3M melanoma
# [9] = system: RPMI-8226 leukemia
# [10] = system: COLO 205 colon
# [11] = system: SNB-78 CNS
# [12] = system: SF-295 CNS
# [13] = system: SNB-75 CNS
# [14] = system: SK-MEL-2 melanoma
# [15] = system: HT29 colon
# [16] = system: KM20L2 colon
# [17] = system: SW-620 colon
# [18] = system: OVCAR-4 ovarian
# [19] = system: IGROV1 ovarian
# [20] = system: SK-OV-3 ovarian
# [21] = system: OVCAR-8 ovarian
# [22] = system: CCRF-CEM leukemia
# [23] = system: A498 renal
# [24] = system: NCI-H460 lung
# [25] = system: DLD-1 colon
# [26] = system: MOLT-4 leukemia
# [27] = system: RXF 393 renal
# [28] = system: NCI-H226 lung
# [29] = system: HL-60(TB) leukemia
# [30] = system: KM12 colon
# [31] = system: HCT-15 colon
# [32] = system: SK-MEL-5 melanoma
# [33] = system: SNB-19 CNS
# [34] = system: K-562 leukemia
# [35] = system: CAKI-1 renal
# [36] = system: HCT-116 colon
# [37] = system: HOP-18 NSCLC
# [38] = system: OVCAR-3 ovarian
# [39] = system: SF-539 CNS
# [40] = system: NCI-H23 lung
# [41] = system: LXFL 529 NSCLC
# [42] = system: EKVX NSCLC
# [43] = system: TK-10 renal
# [44] = system: 786-0 renal
# [45] = system: SF-268 CNS
# [46] = system: HOP-62 NSCLC
# [47] = system: OVCAR-5 ovarian
# [48] = system: HCC-2998 colon
# [49] = system: M19-MEL melanoma
# [50] = system: U251 CNS
# [51] = system: ACHN renal
# [52] = system: SR leukemia
# [53] = system: HOP-92 NSCLC
# [54] = system: UO-31 renal
# [55] = system: DMS 114 small cell lung
# [56] = system: LOX IMVI melanoma
# [57] = system: SN12C renal
compound,measurement,setting,value
CC1(C)C(c2ccccc2)=NN(O)c2ccccc21,TGI,[1],> 100 µM
same,TGI,[2],> 100 µM
same,TGI,[3],> 100 µM
same,TGI,[4],> 100 µM
same,TGI,[5],> 100 µM
same,TGI,[6],> 100 µM
same,TGI,[7],> 100 µM
same,TGI,[8],> 100 µM
same,TGI,[9],> 100 µM
same,TGI,[10],> 100 µM
same,TGI,[11],> 100 µM
same,TGI,[12],> 100 µM
same,TGI,[13],> 100 µM
same,TGI,[14],> 100 µM
same,TGI,[15],> 100 µM
same,TGI,[16],> 100 µM
same,TGI,[17],> 100 µM
same,TGI,[18],> 100 µM
same,TGI,[19],> 100 µM
same,TGI,[20],> 100 µM
same,TGI,[21],> 100 µM
same,TGI,[22],> 100 µM
same,TGI,[23],> 100 µM
same,TGI,[24],> 100 µM
same,TGI,[25],> 100 µM
same,TGI,[26],> 100 µM
same,TGI,[27],> 100 µM
same,TGI,[28],> 100 µM
same,TGI,[29],> 100 µM
same,TGI,[30],> 100 µM
same,TGI,[31],> 100 µM
same,TGI,[32],> 100 µM
same,TGI,[33],> 100 µM
same,TGI,[34],> 100 µM
same,TGI,[35],> 100 µM
same,TGI,[36],> 100 µM
same,TGI,[37],> 100 µM
same,TGI,[38],> 100 µM
same,TGI,[39],> 100 µM
same,TGI,[40],> 100 µM
same,TGI,[41],> 100 µM
same,TGI,[42],> 100 µM
same,TGI,[43],> 100 µM
same,TGI,[44],> 100 µM
same,TGI,[45],> 100 µM
same,TGI,[46],> 100 µM
same,TGI,[47],> 100 µM
same,TGI,[48],> 100 µM
same,TGI,[49],> 100 µM
same,TGI,[50],> 100 µM
CCC1=C(C)/C(=C/c2[nH]c(C(Br)Br)c(CC)c2C)N=C1C(Br)Br,TGI,[2],> 100 µM
same,TGI,[3],38.1 µM
same,TGI,[4],> 100 µM
same,TGI,[5],57.6 µM
same,TGI,[6],> 100 µM
same,TGI,[7],> 100 µM
same,TGI,[8],76.4 µM
same,TGI,[9],39.9 µM
same,TGI,[10],21 µM
same,TGI,[11],> 100 µM
same,TGI,[12],98.2 µM
same,TGI,[13],90.8 µM
same,TGI,[14],> 100 µM
same,TGI,[15],> 100 µM
same,TGI,[16],> 100 µM
same,TGI,[51],> 100 µM
same,TGI,[17],> 100 µM
same,TGI,[19],> 100 µM
same,TGI,[20],> 100 µM
same,TGI,[52],32.6 µM
same,TGI,[21],> 100 µM
same,TGI,[22],55.3 µM
same,TGI,[53],> 100 µM
same,TGI,[24],> 100 µM
same,TGI,[25],> 100 µM
same,TGI,[26],27.4 µM
same,TGI,[27],78.9 µM
same,TGI,[28],90.1 µM
same,TGI,[29],52.2 µM
same,TGI,[30],80.4 µM
same,TGI,[31],> 100 µM
same,TGI,[54],> 100 µM
same,TGI,[32],32.1 µM
same,TGI,[33],> 100 µM
same,TGI,[34],> 100 µM
same,TGI,[36],> 100 µM
same,TGI,[37],> 100 µM
same,TGI,[38],> 100 µM
same,TGI,[39],> 100 µM
same,TGI,[40],> 100 µM
same,TGI,[41],> 100 µM
same,TGI,[55],88.6 µM
same,TGI,[42],> 100 µM
same,TGI,[56],> 100 µM
same,TGI,[43],> 100 µM
same,TGI,[44],> 100 µM
same,TGI,[45],> 100 µM
same,TGI,[46],> 100 µM
same,TGI,[47],> 100 µM
same,TGI,[48],52.9 µM
same,TGI,[49],79.1 µM
same,TGI,[57],> 100 µM
same,TGI,[50],86.4 µM
CC1(c2cccc3c2C2(O)C=CC4(CCC32)OCCO4)OCCO1 (centres undefined),TGI,[1],> 100 µM
same,TGI,[2],> 100 µM
same,TGI,[3],> 100 µM
same,TGI,[4],> 100 µM
same,TGI,[5],> 100 µM
same,TGI,[6],> 100 µM
same,TGI,[7],> 100 µM
same,TGI,[8],> 100 µM
same,TGI,[9],> 100 µM
same,TGI,[10],> 100 µM
same,TGI,[11],> 100 µM
same,TGI,[12],> 100 µM
same,TGI,[13],> 100 µM
same,TGI,[14],> 100 µM
same,TGI,[15],> 100 µM
same,TGI,[16],> 100 µM
same,TGI,[51],> 100 µM
same,TGI,[17],> 100 µM
same,TGI,[18],> 100 µM
same,TGI,[19],> 100 µM
same,TGI,[20],> 100 µM
same,TGI,[21],> 100 µM
same,TGI,[22],> 100 µM
same,TGI,[23],> 100 µM
same,TGI,[24],> 100 µM
same,TGI,[25],> 100 µM
same,TGI,[26],> 100 µM
same,TGI,[27],> 100 µM
same,TGI,[28],> 100 µM
same,TGI,[29],> 100 µM
same,TGI,[30],> 100 µM
same,TGI,[31],> 100 µM
same,TGI,[54],> 100 µM
same,TGI,[32],> 100 µM
same,TGI,[33],> 100 µM
same,TGI,[34],> 100 µM
same,TGI,[35],> 100 µM
same,TGI,[36],> 100 µM
same,TGI,[37],> 100 µM
same,TGI,[38],> 100 µM
same,TGI,[39],> 100 µM
same,TGI,[40],> 100 µM
same,TGI,[41],> 100 µM
same,TGI,[55],> 100 µM
same,TGI,[42],> 100 µM
same,TGI,[56],> 100 µM
same,TGI,[43],> 100 µM
same,TGI,[44],> 100 µM
same,TGI,[45],> 100 µM
same,TGI,[46],> 100 µM
same,TGI,[47],> 100 µM
same,TGI,[48],> 100 µM
same,TGI,[49],> 100 µM
same,TGI,[57],> 100 µM
same,TGI,[50],> 100 µM
COc1cc2cc[n+](C)c(Cc3ccccc3)c2cc1OC,TGI,[1],> 100 µM
same,TGI,[2],> 100 µM
same,TGI,[3],> 100 µM
same,TGI,[4],> 100 µM
same,TGI,[5],> 100 µM
same,TGI,[6],> 100 µM
same,TGI,[7],> 100 µM
same,TGI,[8],> 100 µM
same,TGI,[9],> 100 µM
same,TGI,[10],> 100 µM
same,TGI,[11],> 100 µM
same,TGI,[12],> 100 µM
same,TGI,[13],> 100 µM
same,TGI,[14],> 100 µM
same,TGI,[15],> 100 µM
same,TGI,[16],> 100 µM
same,TGI,[51],> 100 µM
same,TGI,[17],> 100 µM
same,TGI,[18],> 100 µM
same,TGI,[19],> 100 µM
same,TGI,[20],> 100 µM
same,TGI,[21],> 100 µM
same,TGI,[22],> 100 µM
same,TGI,[23],> 100 µM
same,TGI,[53],> 100 µM
same,TGI,[24],> 100 µM
same,TGI,[26],> 100 µM
same,TGI,[27],> 100 µM
same,TGI,[28],> 100 µM
same,TGI,[30],> 100 µM
same,TGI,[31],> 100 µM
same,TGI,[54],> 100 µM
same,TGI,[32],> 100 µM
same,TGI,[33],> 100 µM
same,TGI,[34],> 100 µM
same,TGI,[36],> 100 µM
same,TGI,[37],> 100 µM
same,TGI,[38],> 100 µM
same,TGI,[39],> 100 µM
same,TGI,[40],> 100 µM
same,TGI,[41],> 100 µM
same,TGI,[55],> 100 µM
same,TGI,[42],> 100 µM
same,TGI,[56],> 100 µM
same,TGI,[43],> 100 µM
same,TGI,[44],> 100 µM
same,TGI,[45],> 100 µM
same,TGI,[47],> 100 µM
same,TGI,[49],> 100 µM
same,TGI,[57],> 100 µM
same,TGI,[50],> 100 µM
